Earlier results, collected in patent US5807732A, “GDP-L-fucose: β-D-galactoside 2-α-L-fucosyltransferases, DNA sequences encoding the same, method for producing the same and a method of genotyping a person” (priority 1995, dated 1998).
Values joined by “and” are separate entries in the source; they are usually repeats but may differ in a detail not shown here. Identical values can stand only once. Like-named read-outs stand apart in the source and are kept apart here. One block for each molecule: values may come before it.

Experiments:
[1] = tested on: Secretor α(1,2)fucosyltransferase; details: read-out: Apparent Km
[2] = target: T1, H α(1,2)fucosyltransferase (Homo sapiens, UniProt P19526); details: enzyme H; literature values; read-out: Apparent Km
T1 sequence (P19526 1-365): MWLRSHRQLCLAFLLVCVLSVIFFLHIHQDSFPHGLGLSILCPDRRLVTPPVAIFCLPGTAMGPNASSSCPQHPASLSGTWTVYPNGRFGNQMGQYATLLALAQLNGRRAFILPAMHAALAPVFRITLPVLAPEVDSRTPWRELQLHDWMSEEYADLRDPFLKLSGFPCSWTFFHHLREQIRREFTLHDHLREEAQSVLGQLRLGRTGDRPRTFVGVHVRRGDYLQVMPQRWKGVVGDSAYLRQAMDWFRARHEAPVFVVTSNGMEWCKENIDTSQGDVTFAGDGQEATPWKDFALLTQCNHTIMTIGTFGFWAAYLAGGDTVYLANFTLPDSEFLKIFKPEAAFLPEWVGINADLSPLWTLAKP

transfected COS-7 cells = details: expressed in COS-7 cells
[3] = enzyme Secretor, literature values

Molecule: COC1O[C@H](CO)[C@@H](O)[C@H](O[C@@H]2O[C@H](CO)[C@H](O)[C@H](O)[C@H]2O)[C@H]1NC(C)=O (stereo partly drawn) [lacto-N-biose I (--O--Me)]
Km [1, 3]: 1400 µM
Km [2]: 3500 µM

Molecule: CC(=O)N[C@H]1[C@H](O[C@H]2[C@@H](O)[C@@H](CO)O[C@@H](O[C@H]3[C@H](O)[C@@H](O)C(O)O[C@@H]3CO)[C@@H]2O)O[C@H](CO)[C@@H](O)[C@@H]1O[C@@H]1O[C@H](CO)[C@H](O)[C@H](O)[C@H]1O (stereo partly drawn) [lacto-N-tetraose]
Km [1, 3]: 1600 µM

Molecule: CC(=O)N[C@H]1C(O)O[C@H](CO)[C@@H](O)[C@@H]1O[C@@H]1O[C@H](CO)[C@H](O)[C@H](O)[C@H]1O (stereo partly drawn) [lacto-N-biose I]
Km [1, 3]: 1000 µM
Km [2]: 2000 µM

B1: H blood group cDNA-encoded α(1,2)fucosyltransferase: human H blood group (FUT1) α(1,2)fucosyltransferase expressed from cDNA in COS-7 cells (protein, UniProt P19526 1-365, looked up)
Galactoside …: T1 sequence (P19526 1-365)
distribution of α(1,2)fucosyltransferase activity between cells and media (transfected COS-7 cells): largely cell-associated

Second part, the molecule after the results:

Km [1, 3]: 108 µM and 123 µM
Molecule: C[C@@H]1O[C@H](OP(=O)(O)OP(=O)(O)OC[C@H]2O[C@@H](n3cnc4c(=O)[nH]c(N)nc43)[C@H](O)[C@@H]2O)[C@@H](O)[C@H](O)[C@@H]1O [GDP-fucose]

Km ([1]; human Secretor α(1,2)fucosyltransferase partially purified from human milk): 15100 µM
Km ([1]; human Secretor α(1,2)fucosyltransferase purified from human serum): 11400 µM
Molecule: OC[C@H]1O[C@@H](Oc2ccccc2)[C@H](O)[C@@H](O)[C@H]1O [phenyl-β-D-galactoside]
